Conditions: Fluid (supercritical or subcritical phases), Buoyancy - hydrostatic balance with magnetic suspension - one sinker

C [methane]
Conditions | mass density [kg/m3]
298.14 K, 20012 kPa | 157.172
298.14 K, 29958 kPa | 212.508
298.14 K, 35056 kPa | 232.422
298.14 K, 49959 kPa | 273.189
298.14 K, 99874 kPa | 342.269
298.14 K, 124934 kPa | 363.139
298.14 K, 150062 kPa | 380.039
298.14 K, 159617 kPa | 385.731
298.14 K, 170054 kPa | 391.531
298.14 K, 185333 kPa | 399.489
298.14 K, 186931 kPa | 400.257
298.14 K, 188059 kPa | 400.837
298.15 K, 10010 kPa | 76.08
298.15 K, 79980 kPa | 321.098
298.16 K, 1012 kPa | 6.665
298.16 K, 66961 kPa | 303.605
298.19 K, 5009 kPa | 35.316
298.25 K, 14994 kPa | 118.506
305.23 K, 9993 kPa | 72.932
305.23 K, 49968 kPa | 267.232
305.23 K, 60012 kPa | 287.019
305.23 K, 79855 kPa | 316.163
305.23 K, 99904 kPa | 337.939
305.23 K, 124930 kPa | 359.159
305.23 K, 149862 kPa | 376.248
305.24 K, 1002 kPa | 6.404
305.24 K, 2000 kPa | 13.031
305.24 K, 5001 kPa | 34.173
305.24 K, 6897 kPa | 48.435
305.24 K, 15006 kPa | 113.44
305.24 K, 20696 kPa | 155.024
305.24 K, 29976 kPa | 205.443
305.24 K, 34563 kPa | 223.779
305.24 K, 69988 kPa | 302.917
338.04 K, 6905 kPa | 42.093
338.05 K, 5000 kPa | 29.983
338.05 K, 34473 kPa | 195.446
338.06 K, 70001 kPa | 280.639
338.07 K, 124895 kPa | 341.685
338.07 K, 149542 kPa | 359.787
338.08 K, 1004 kPa | 5.782
338.08 K, 2004 kPa | 11.667
338.08 K, 15026 kPa | 95.246
338.08 K, 20687 kPa | 130.132
338.08 K, 30005 kPa | 177.38
338.08 K, 50031 kPa | 241.969
338.08 K, 59971 kPa | 263.229
338.09 K, 164905 kPa | 369.665
338.1 K, 9969 kPa | 62.054
338.1 K, 80310 kPa | 295.61
338.11 K, 99908 kPa | 318.744
338.12 K, 179829 kPa | 378.164
399.94 K, 89964 kPa | 274.637
399.97 K, 59973 kPa | 225.951
399.98 K, 1002 kPa | 4.86
399.98 K, 30014 kPa | 141.158
399.99 K, 15027 kPa | 74.789
400 K, 50037 kPa | 203.469
400 K, 79920 kPa | 260.652
400.01 K, 2001 kPa | 9.744
400.01 K, 6915 kPa | 34.195
400.01 K, 10002 kPa | 49.746
400.02 K, 20675 kPa | 101.642
400.02 K, 124882 kPa | 312.062
400.02 K, 149627 kPa | 332.136
400.03 K, 13795 kPa | 68.723
400.04 K, 34510 kPa | 157.64
400.04 K, 69978 kPa | 244.725
400.07 K, 5005 kPa | 24.61
400.09 K, 99984 kPa | 286.8
450 K, 2009 kPa | 8.61
450.01 K, 20697 kPa | 87.478
450.01 K, 99932 kPa | 264.608
450.02 K, 89981 kPa | 251.923
450.02 K, 119918 kPa | 286.376
450.03 K, 59975 kPa | 202.137
450.03 K, 139476 kPa | 304.187
450.05 K, 30002 kPa | 121.791
450.06 K, 50036 kPa | 179.955
450.06 K, 69966 kPa | 221.073
450.08 K, 80008 kPa | 237.571
450.09 K, 6886 kPa | 29.741
450.12 K, 34492 kPa | 136.647
